According to patent US12011444B2, “N-substituted indole derivatives as PGE2 receptor modulators” (Idorsia Pharmaceuticals Ltd, priority 2015, dated 2024):

Columns and labels:
PTGER2 (EP2) = PTGER2 (EP2) (Homo sapiens (Human), UniProt P43116); assay: hEP2 b-arrestin assay (PathHunter HEK 293 PTGER2 b-arrestin cells); type: cell-based
Source text: (§1) The assay is using the PathHunter™ HEK 293 PTGER2 and PTGER4 b-arrestin cell lines from DiscoverX. The system is based on the Enzyme Fragment Complementation Technology. Two complementing fragments of the b-galactosidase enzyme are expressed within stably transfected cells. The larger portion of b-gal, termed EA for Enzyme Acceptor, is fused to the C-terminus of b-arrestin 2. The smaller fragment, termed ProLink™ tag, is fused to PTGER2 (EP2) or PTRGER4 (EP4) at the C-terminus. Upon activation, b-arrestin is recruited which forces the interaction of ProLink and EA, allowing complementation of the two fragments of b-gal and the formation of a functional enzyme which is capable of hydrolysing the substrate and generating a chemiluminescent signal.
(§2) 5000 cells per well of a 384 well plate (white with white bottom Greiner 781080) are seeded in 20 ul per well of GM. Plate is incubated at 37° C., 5% C02 for 24 hours.
Plate is pre-incubated 15 minutes at 37° C. Then five microliters of PGE2 (final conc. 5 μM) are transferred into the assay plate. Plate is incubated 120 minutes at 37° C.
(§3) Twelve μl of reagent are transferred to the assay plate and incubate for 1 hour at room temperature in the dark. Luminescence counts are read on a BMG Fluostar Optima reader according to manufacturer's instructions. For each compound concentration calculate of the percentage of activity compared to DMSO control value as average±STDEV. (each concentration is measured in duplicate)

PTRGER4 (EP4) = PTRGER4 (EP4) (Homo sapiens (Human), UniProt P35408); assay: hEP4 b-arrestin assay (PathHunter HEK 293 PTGER4 b-arrestin cells); type: cell-based
Source text: as §1, §2
Plate is pre-incubated 15 minutes at 37° C. Then five microliters of PGE2 (final conc. 20 nM) are transferred into the assay plate. Plate is incubated 120 minutes at 37° C.
as §3, with “average±STDEV.” for “average±STDEV. (each concentration is measured in duplicate)”

[1] = antagonistic activity on hEP2, mean where measured multiple times
[2] = antagonistic activity on hEP4, mean where measured multiple times
[3] = hEP2 b-arrestin assay (values without asterisk)
[4] = hEP4 b-arrestin assay (values without asterisk)

PTGER2 (EP2), sequence (P43116 whole entry, the tested form may be a part): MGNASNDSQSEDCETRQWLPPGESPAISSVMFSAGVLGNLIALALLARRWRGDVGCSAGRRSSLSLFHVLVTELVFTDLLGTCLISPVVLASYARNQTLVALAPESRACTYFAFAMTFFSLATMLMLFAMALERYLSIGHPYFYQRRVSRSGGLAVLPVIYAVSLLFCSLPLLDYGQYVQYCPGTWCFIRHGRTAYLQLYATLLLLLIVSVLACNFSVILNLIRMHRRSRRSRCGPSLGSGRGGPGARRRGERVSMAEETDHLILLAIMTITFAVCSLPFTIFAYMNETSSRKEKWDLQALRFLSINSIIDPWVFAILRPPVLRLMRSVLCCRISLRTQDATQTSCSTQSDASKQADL
PTRGER4 (EP4), sequence (P35408 whole entry, looked up): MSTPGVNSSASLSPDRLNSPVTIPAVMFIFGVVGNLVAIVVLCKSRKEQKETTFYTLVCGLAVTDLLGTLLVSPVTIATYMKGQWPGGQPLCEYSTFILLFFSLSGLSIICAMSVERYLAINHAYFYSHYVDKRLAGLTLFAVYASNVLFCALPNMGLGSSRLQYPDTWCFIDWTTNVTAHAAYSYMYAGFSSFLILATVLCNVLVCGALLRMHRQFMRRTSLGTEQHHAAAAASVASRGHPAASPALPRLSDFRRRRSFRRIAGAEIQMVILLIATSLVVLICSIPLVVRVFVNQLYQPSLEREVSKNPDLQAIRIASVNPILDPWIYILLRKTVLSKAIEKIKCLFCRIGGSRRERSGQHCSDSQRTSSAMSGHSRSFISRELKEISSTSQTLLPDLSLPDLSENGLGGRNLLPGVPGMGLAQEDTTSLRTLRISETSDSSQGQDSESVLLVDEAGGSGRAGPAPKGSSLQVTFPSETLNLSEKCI

| Compound | IC50 (PTGER2 (EP2); [1]) [nM] | IC50 (PTRGER4 (EP4); [2]) [nM] | IC50 (PTGER2 (EP2); [3]) [nM] | IC50 (PTRGER4 (EP4); [4]) [nM] |
| --- | --- | --- | --- | --- |
| COc1ccc(F)c2c1cc(C)n2CCNc1cc(-c2ccc(-c3csc(O)n3)cc2)ncn1 [Example 798, 4-(4-{6-[2-(7-Fluoro-4-methoxy-2-methyl-indol-1-yl)-ethylamino]-pyrimidin-4-yl}-phenyl)-thiazol-2-ol] | – | – | 28 | 123 |
| COc1ccc(F)c2c1cc(C#N)n2CCNc1cc(-c2ccc(OCCO)cc2)ncn1 [Example 964, 7-Fluoro-1-(2-{6-[4-(2-hydroxy-ethoxy)-phenyl]-pyrimidin-4-ylamino}-ethyl)-4-methoxy-1H-indole-2-carbonitrile] | – | – | 41 | 22 |
| Cc1ccc(F)c2c1cc(C)n2CCNc1cc(-c2ccc(-c3cnco3)cc2)ncn1 [compound 97] | 177 | 527 | – | – |
| CCOc1cc(-c2cc(NCCn3c(C#N)cc4c(OC)ccc(F)c43)ncn2)sc1C(=O)NC [Example 1023, 5-{6-[2-(2-Cyano-7-fluoro-4-methoxy-indol-1-yl)-ethylamino]-pyrimidin-4-yl}-3-ethoxy-thiophene-2-carboxylic acid methylamide] | – | – | 8 | 1 |
| COc1ccc(F)c2c1cc(C#N)n2CCNc1cc(-c2ccc3oc(=O)n(C)c3c2)ncn1 [Example 973, 7-Fluoro-4-methoxy-1-{2-[6-(3-methyl-2-oxo-2,3-dihydro-benzooxazol-5-yl)-pyrimidin-4-ylamino]-ethyl}-1H-indole-2-carbonitrile] | – | – | 15 | 49 |
| CCOc1cc(-c2cc(NCCn3c(C#N)cc4c(OC)ccc(F)c43)ncn2)sc1C(=O)NCCOC [Example 1028, 5-{6-[2-(2-Cyano-7-fluoro-4-methoxy-indol-1-yl)-ethylamino]-pyrimidin-4-yl}-3-ethoxy-thiophene-2-carboxylic acid (2-methoxy-ethyl)-amide] | – | – | 9 | 2 |
| CCSc1cc(C(=O)O)cc(-c2cc(NCCn3c(C#N)cc4c(OC)ccc(F)c43)ncn2)c1 [Example 922, 3-{6-[2-(2-Cyano-7-fluoro-4-methoxy-indol-1-yl)-ethylamino]-pyrimidin-4-yl}-5-ethylsulfanyl-benzoic acid] | – | – | 19 | 19 |
| CCCN1Cc2cc(-c3cc(NCCn4c(C)cc5c(OC)cccc54)ncn3)ccc2C1=O [compound 315, 5-{6-[2-(4-Methoxy-2-methyl-indol-1-yl)-ethylamino]-pyrimidin-4-yl}-2-propyl-2,3-dihydro-isoindol-1-one] | 46 | 268 | – | – |
| COc1ccc(F)c2c1cc(C)n2CCNc1cc(-c2ccc3ccncc3c2)ncn1 [compound 383] | 17 | 147 | – | – |
| CNc1nnc(-c2ccc(-c3cc(NCCn4c(C)cc5ccccc54)ncn3)cc2)s1 [compound 387] | 2 | 556 | – | – |
| Cc1ccc(F)c2c1cc(C)n2CCNc1cc(-c2ccc(N3CCCS3(=O)=O)cc2)ncn1 [compound 316] | 245 | 906 | – | – |
| CCc1cc(-c2cc(NCCn3c(C)cc4c5c(cc(Cl)c43)OCO5)ncn2)ccc1C(=O)O [compound 295, 4-{6-[2-(5-Chloro-7-methyl-[1,3]dioxolo[4,5-e]indol-6-yl)-ethylamino]-pyrimidin-4-yl}-2-ethyl-benzoic acid] | 12 | 950 | – | – |
| CNc1cc(-c2cc(NCCn3c(C#N)cc4c(OC)ccc(F)c43)ncn2)ccc1C(=O)O [Example 1010, 4-{6-[2-(2-Cyano-7-fluoro-4-methoxy-indol-1-yl)-ethylamino]-pyrimidin-4-yl}-2-methylamino-benzoic acid] | – | – | 3 | 7 |
| CCSc1cc(-c2cc(NCCn3c(C)cc4c(Cl)ccc(Cl)c43)ncn2)ccc1C(=O)O [compound 149, 4-{6-[2-(4,7-Dichloro-2-methyl-indol-1-yl)-ethylamino]-pyrimidin-4-yl}-2-ethylsulfanyl-benzoic acid] | 10 | 605 | – | – |

Continued, values first:

| IC50 (PTGER2 (EP2); [1]) [nM] | IC50 (PTRGER4 (EP4); [2]) [nM] | IC50 (PTGER2 (EP2); [3]) [nM] | IC50 (PTRGER4 (EP4); [4]) [nM] | Compound |
| --- | --- | --- | --- | --- |
| 12 | 71 | – | – | CCOc1cc(-c2cc(NCCn3c(C)cc4c(OC)ccc(C)c43)ncn2)sc1C(=O)O [compound 261] |
| – | – | 5 | 37 | CNc1cc(-c2cc(NCCn3c(C)cc4c(C)c(F)cc(F)c43)ncn2)ccc1C(=O)O [Example 1012, 4-{6-[2-(5,7-Difluoro-2,4-dimethyl-indol-1-yl)-ethylamino]-pyrimidin-4-yl}-2-methylamino-benzoic acid] |
| – | – | 28 | 39 | CCOc1cc(-c2cc(NCCn3c(C)cc4c(C)c(F)cc(Cl)c43)ncn2)sc1C(=O)O [Example 837, 5-{6-[2-(7-Chloro-5-fluoro-2,4-dimethyl-indol-1-yl)-ethylamino]-pyrimidin-4-yl}-3-ethoxy-thiophene-2-carboxylic acid] |
| – | – | 7 | 215 | COc1cc(F)cc2c1cc(C)n2CCNc1cc(-c2ccc(C(=O)O)c(OCC(F)(F)F)c2)ncn1 [Example 845, 4-{6-[2-(6-Fluoro-4-methoxy-2-methyl-indol-1-yl)-ethylamino]-pyrimidin-4-yl}-2-(2,2,2-trifluoro-ethoxy)-benzoic acid] |
| – | – | 9 | 41 | CCNc1csc(-c2cc(NCCn3c(C)cc4c(C)cc(F)cc43)ncn2)c1 [Example 1069, [6-(4-Ethylamino-thiophen-2-yl)-pyrimidin-4-yl]-[2-(6-fluoro-2,4-dimethyl-indol-1-yl)-ethyl]-amine] |
| 8 | 302 | – | – | CCCc1cc(-c2cc(NCCn3c(C)cc4cc(F)cc(F)c43)ncn2)ccc1C(=O)O [compound 145, 4-{6-[2-(5,7-Difluoro-2-methyl-indol-1-yl)-ethylamino]-pyrimidin-4-yl}-2-propyl-benzoic acid] |
| 2 | 22 | – | – | CCOc1cc(-c2cc(NCCn3c(C)cc4c(C)ccc(F)c43)ncn2)sc1C(=O)O [compound 227] |
| 43 | 277 | – | – | COc1ccc(F)c2c1cc(C)n2CCNc1cc(-c2ccc(NC(N)=O)cc2)ncn1 [compound 132, (4-{6-[2-(7-Fluoro-4-methoxy-2-methyl-indol-1-yl)-ethylamino]-pyrimidin-4-yl}-phenyl)-urea] |
| 46 | 199 | – | – | Cc1ccc(F)c2c1cc(C)n2CCNc1cc(-c2ccc(C(=O)O)c(CC(C)C)c2)ncn1 [compound 336, 4-{6-[2-(7-Fluoro-2,4-dimethyl-indol-1-yl)-ethylamino]-pyrimidin-4-yl}-2-isobutyl-benzoic acid] |
| 1 | 19 | – | – | CCOc1cc(-c2cc(NCCn3c(C)cc4c(Cl)cc(F)cc43)ncn2)sc1C(=O)O [compound 239] |
| 13 | 213 | – | – | CCNc1cc(-c2cc(NCCn3c(C)cc4c(C)ccc(F)c43)ncn2)cc(Cl)c1C(=O)O [compound 353, 2-Chloro-6-ethylamino-4-{6-[2-(7-fluoro-2,4-dimethyl-indol-1-yl)-ethylamino]-pyrimidin-4-yl}-benzoic acid] |
| 44 | 86 | – | – | COc1ccc(F)c2c1cc(C)n2CCNc1cc(-c2ccc3[nH]c(C)nc3c2)ncn1 [compound 81, [2-(7-Fluoro-4-methoxy-2-methyl-indol-1-yl)-ethyl]-[6-(2-methyl-1H-benzoimidazol-5-yl)-pyrimidin-4-yl]-amine] |
| 47 | 231 | – | – | Cc1ccc(F)c2c1cc(C)n2CCNc1cc(-c2ccc3c(c2)CC(=O)N3)ncn1 [compound 64, 5-{6-[2-(7-Fluoro-2,4-dimethyl-indol-1-yl)-ethylamino]-pyrimidin-4-yl}-1,3-dihydro-indol-2-one] |
